Key:
[1] = tested on: luciferase expression in the liver; assay: In vivo luciferase mRNA expression in liver after tail vein injection of FLuc mRNA lipid nanoparticles; set-up: species or system mice; details: liver 5 hours after administration, FLuc mRNA LNP 50% cationic lipid/10% DSPC/40% cholesterol/1.5% PEG-DMG; for Liver Luc @ 0.3 mg/kg dose: 0.3 mg mRNA/kg; for Liver Luc @ 1.0 mg/kg dose: 1.0 mg mRNA/kg
Experimental: […] Lipid nanoparticles (LNPs) were prepared in a total lipid to mRNA weight ratio of about 10:1 to 30:1. mRNA was diluted to 0.15 mg/ml in 10 to 50 ml citrate buffer (pH=4). Using a syringe pump, an ethanolic solution of lipids was mixed with an aqueous mRNA solution in a ratio of approximately 1:5 to 1:3 (volume/volume) at a total flow rate of more than 15 ml/min. Then ethanol was removed and the external buffer replaced by dialysis with PBS. Finally, the lipid nanoparticles were filtered through a 0.2 um pore size sterile filter. The particle size of lipid nanoparticles as determined by quasi-elastic light scattering using Malvern Zetasizer Nano ZS was approximately 65-105 nm in diameter and, in some cases, approximately 75-100 nm in diameter.
The in vivo study was conducted on female mice aged 6-8 weeks and mice aged 8-10 weeks according to guidelines developed by the National Council for Science and Technology. Different doses of mRNA lipid nanoparticles were administered systemically via tail vein injection and the animals euthanized at specific time points (e.g., 5 hours) after dosing. The liver and spleen were collected in pre-weighed tubes, their weights determined, frozen immediately in liquid nitrogen, and stored at −80° C. until use for analysis.
For the liver, approximately 50 mg of liver tissue was cut for analysis and placed in 2 mL FastPrep tubes (MP Biomedicals, Solon OH). ¼″ ceramic beads (MP Biomedicals) and 500 μL of Glo Lysis Buffer-GLB (Promega, Madison WI) were added to each tube and the contents equilibrated to room temperature. The liver tissue was then homogenized for 15 seconds at 2×6.0 m/s using a FastPrep24 instrument (MP Biomedicals). The homogenates were incubated for 5 minutes at room temperature followed by a ¼ dilutions in GLB and evaluated using the SteadyGlo luciferase assay system (Promega). Specifically, 50 μL of diluted tissue homogenate was reacted with 50 μL of SteadyGlo substrate, shaken for 10 seconds, followed by incubation for 5 minutes and quantified using a CentroXS3LB 960 photometer (Berthold Technologies, Germany). The amount of protein was determined using a BCA Protein Assay Kit (Pierce, Rockford IL). Relative luminescence units (RLU) were then normalized to the total ug of the measured protein. To convert RLU into ng luciferase, a standard curve was generated with QuantiLum recombinant luciferase (Promega).
FLuc mRNA (L-6107) from Trilink Biotechnologies will express luciferase protein, and was originally isolated from fireflies (Photinus pyralis). Fluc is commonly used in mammalian cell cultures to measure gene expression and cell viability. It emits biologic light in the presence of the substrate luciferin. This capped and polyadenylated mRNA was completely replaced by 5-methylcytidine and pseudouridine. […]

[2] = Determination of the pKa of cationic lipids in lipid nanoparticles by TNS fluorescence analysis
Experimental: The pKa of each cationic lipid was determined in lipid nanoparticles using fluorescence analysis based on 2-(p-toluidine)-6-naphthalenesulfonic acid (TNS). As described in Example 3, lipid nanoparticles containing cationic lipids/DSPC/cholesterol/PEG lipids (50/10/40/1.5 mol %) at a concentration of 0.4 mM total lipid in PBS were prepared using an ordered method. 100 μM stock solution was prepared with TNS in distilled water. The vesicles were diluted to contain 24 μM lipid in 2 mL of a buffer solution containing 10 mM HEPES, 10 mM MES, 10 mM acetic acid, 130 mM NaCl, and having a pH of 2.5 to 11. The equal TNS solution was added to produce a final concentration of 1 uM, and after vortex mixing, fluorescence intensity was measured in a SLM Aminco Series 2 luminescence spectrophotometer at room temperature using excitation and emission wavelengths of 321 nm and 445 nm. Fluorescence data were analyzed using a sigmoidal best fit and pKa was measured as the pH producing half-maximal fluorescence intensity.

pKa [2]	Compound	Liver Luc @ 0.3 mg/kg dose [1] [ng luciferase/g liver]	Liver Luc @ 1.0 mg/kg dose [1] [ng luciferase/g liver]
	2-heptylnonyl 8-((2-hydroxyethyl) (6-oxo-6-(undecyloxy)hexyl)amino)octanoate [Compound B]	134 ± 40	522 ± 210
6.01	CCCCCCCCCCCOC(=O)CCCCCN(CCO)CCCCCCCC(=O)OCC(CCCCCCCC)CCCCCCCC [Compound A, 2-octyldecyl 8-((2-hydroxyethyl) (6-oxo-6-(undecyloxy)hexyl)amino)octanoate]	156 ± 50	550 ± 200

From US20250074867A1, “NOVEL CATIONIC LIPID COMPOUNDS” (Guangzhou Anobri Pharmaceutical Co. Ltd., priority 2021, published 2025)
